ChEMBL document CHEMBL4334512, “Rationally Designed, Conformationally Constrained Inverse Agonists of RORγt-Identification of a Potent, Selective Series with Biologic-Like in Vivo Efficacy” (J Med Chem, 2019)

Key:
[1] = target: T1, Oxysterols receptor LXR-beta (Homo sapiens, UniProt P55055); test: Activity at LXRbeta (unknown origin)
T1 sequence (P55055 whole entry): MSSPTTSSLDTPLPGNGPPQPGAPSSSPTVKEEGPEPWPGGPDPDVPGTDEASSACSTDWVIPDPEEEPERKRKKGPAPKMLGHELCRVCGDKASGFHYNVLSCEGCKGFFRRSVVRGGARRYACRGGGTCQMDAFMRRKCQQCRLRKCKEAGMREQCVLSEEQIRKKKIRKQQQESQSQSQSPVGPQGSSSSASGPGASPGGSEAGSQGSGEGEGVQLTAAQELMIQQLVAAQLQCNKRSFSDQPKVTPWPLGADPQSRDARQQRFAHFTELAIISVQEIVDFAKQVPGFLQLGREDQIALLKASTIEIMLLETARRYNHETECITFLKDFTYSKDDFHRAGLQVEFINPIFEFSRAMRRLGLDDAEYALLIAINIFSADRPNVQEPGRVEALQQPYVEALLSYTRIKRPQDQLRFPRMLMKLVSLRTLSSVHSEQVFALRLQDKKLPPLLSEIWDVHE

[2] = Half life in human liver microsomes; assay type: ADME, Microsome
[3] = target: T2, Oxysterols receptor LXR-alpha (Homo sapiens, UniProt Q13133); test: Activity at LXRalpha (unknown origin)
T2 sequence (Q13133 whole entry): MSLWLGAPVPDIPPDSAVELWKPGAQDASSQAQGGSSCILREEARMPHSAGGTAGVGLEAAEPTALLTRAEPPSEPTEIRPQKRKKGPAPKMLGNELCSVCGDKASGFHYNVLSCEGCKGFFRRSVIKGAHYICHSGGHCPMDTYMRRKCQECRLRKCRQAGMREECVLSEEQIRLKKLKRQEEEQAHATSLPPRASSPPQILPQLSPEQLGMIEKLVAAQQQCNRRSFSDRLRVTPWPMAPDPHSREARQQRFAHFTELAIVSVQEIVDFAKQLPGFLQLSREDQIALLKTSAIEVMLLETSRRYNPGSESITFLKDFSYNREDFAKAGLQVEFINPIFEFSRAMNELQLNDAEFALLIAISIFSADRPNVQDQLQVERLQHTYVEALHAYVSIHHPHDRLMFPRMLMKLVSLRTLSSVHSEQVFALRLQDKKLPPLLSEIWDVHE

[4] = Half life in rat liver microsomes; assay type: ADME, Microsome
[5] = Drug level in Balb/c mouse at 10 mg/kg, po after 24 hrs; assay type: ADME, organism-based; details: in vivo, read-out: Drug uptake
[6] = Half life in mouse liver microsomes; assay type: ADME, Microsome
[7] = Cmax in Balb/c mouse at 10 mg/kg, po; assay type: ADME, organism-based; set-up: dose 10 mg/kg, route oral; details: in vivo
[8] = target: T3, Nuclear receptor ROR-beta (Homo sapiens, UniProt Q92753); test: Activity at RORbeta (unknown origin)
T3 sequence (Q92753 whole entry): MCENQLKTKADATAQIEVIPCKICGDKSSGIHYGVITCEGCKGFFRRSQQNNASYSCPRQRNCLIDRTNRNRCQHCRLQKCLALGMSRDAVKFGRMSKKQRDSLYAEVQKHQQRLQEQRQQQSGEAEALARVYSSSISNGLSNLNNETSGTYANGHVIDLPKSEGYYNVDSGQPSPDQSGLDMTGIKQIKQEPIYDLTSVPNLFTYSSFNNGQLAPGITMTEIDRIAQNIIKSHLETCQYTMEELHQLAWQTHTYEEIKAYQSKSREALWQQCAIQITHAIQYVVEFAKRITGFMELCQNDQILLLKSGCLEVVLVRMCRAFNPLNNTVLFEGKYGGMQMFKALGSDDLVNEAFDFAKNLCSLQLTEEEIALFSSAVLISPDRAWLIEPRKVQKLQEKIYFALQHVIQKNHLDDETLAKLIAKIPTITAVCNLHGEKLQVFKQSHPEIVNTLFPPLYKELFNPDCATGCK

[9] = target: T4, Nuclear receptor ROR-alpha (Homo sapiens, UniProt P35398); test: Activity at RORalpha (unknown origin)
T4 sequence (P35398 whole entry): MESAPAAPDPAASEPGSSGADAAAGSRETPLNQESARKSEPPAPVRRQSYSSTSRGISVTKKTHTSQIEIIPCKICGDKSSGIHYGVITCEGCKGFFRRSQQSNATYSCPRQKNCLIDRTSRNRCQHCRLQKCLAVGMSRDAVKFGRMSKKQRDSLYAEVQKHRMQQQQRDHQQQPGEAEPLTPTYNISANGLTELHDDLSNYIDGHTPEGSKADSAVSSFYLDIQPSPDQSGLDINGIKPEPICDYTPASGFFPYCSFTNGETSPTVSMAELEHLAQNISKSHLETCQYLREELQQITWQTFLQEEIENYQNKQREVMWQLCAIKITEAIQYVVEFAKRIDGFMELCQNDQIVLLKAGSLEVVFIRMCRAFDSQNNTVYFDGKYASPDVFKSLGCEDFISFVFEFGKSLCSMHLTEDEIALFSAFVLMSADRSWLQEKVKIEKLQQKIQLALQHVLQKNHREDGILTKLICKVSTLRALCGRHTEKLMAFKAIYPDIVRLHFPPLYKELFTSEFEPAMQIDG

[10] = target: T5, Nuclear receptor subfamily 1 group I member 2 (Homo sapiens, UniProt O75469); test: Activity at PXR (unknown origin)
T5 sequence (O75469 whole entry): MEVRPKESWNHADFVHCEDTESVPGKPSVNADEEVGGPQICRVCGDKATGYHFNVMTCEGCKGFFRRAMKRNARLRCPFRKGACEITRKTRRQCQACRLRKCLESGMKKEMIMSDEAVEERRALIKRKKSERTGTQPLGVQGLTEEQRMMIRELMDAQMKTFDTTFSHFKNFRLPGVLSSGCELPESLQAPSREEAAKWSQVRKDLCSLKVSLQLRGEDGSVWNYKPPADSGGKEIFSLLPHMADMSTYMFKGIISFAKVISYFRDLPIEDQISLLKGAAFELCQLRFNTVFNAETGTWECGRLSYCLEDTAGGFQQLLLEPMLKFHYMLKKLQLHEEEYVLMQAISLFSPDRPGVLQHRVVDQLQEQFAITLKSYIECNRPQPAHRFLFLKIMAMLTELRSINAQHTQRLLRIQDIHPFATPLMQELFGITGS

[11] = Unbound fraction in human serum; assay type: ADME, cell-free

Compound	IC50 [1] [µM]	half-life [2] [h]	IC50 [3] [µM]	half-life [4] [h]	concentration at 24 h [5] [µM]	half-life [6] [h]	Cmax [7] [µM]	IC50 [8] [µM]	IC50 [9] [µM]	IC50 [10] [µM]	fraction unbound [11]
CCCN1C[C@H]2N(C(=O)[C@H]3CC[C@H](C(=O)O)CC3)CC[C@@]2(S(=O)(=O)c2ccc(F)cc2)c2ccc(C(F)(C(F)(F)F)C(F)(F)F)cc21	> 10	1.53	> 10	1.77		> 2		> 10	> 10	> 40	0.002
Cc1cccc(S(=O)(=O)[C@@]23CCN(C(=O)[C@H]4CC[C@H](C(=O)O)CC4)[C@@H]2CCc2cc(C(F)(C(F)(F)F)C(F)(F)F)ccc23)c1	> 10	> 2	> 10	0.417		> 2		> 10	> 10	> 40	
O=C(N1CC[C@@]2(S(=O)(=O)c3ccc(F)cc3)c3ccc(C(F)(C(F)(F)F)C(F)(F)F)cc3OC[C@@H]12)C1(O)CCS(=O)(=O)CC1	> 10	> 2	> 10	1.58		> 2		> 10	> 10	> 40	
O=C(O)C12CC(C(=O)N3CC[C@@]4(S(=O)(=O)c5ccc(F)cc5)c5ccc(C(F)(C(F)(F)F)C(F)(F)F)cc5CC[C@@H]34)(C1)C2	> 10		> 10					> 10	> 10	> 40	
O=C(O)[C@H]1CC[C@H](C(=O)N2CC[C@@]3(S(=O)(=O)c4cccc(F)c4)c4ccc(C(F)(C(F)(F)F)C(F)(F)F)cc4CC[C@@H]23)CC1	> 10	1.83	> 10	> 2		1.65		> 10	> 10	> 40	
O=C(N1CC[C@@]2(S(=O)(=O)c3ccc(F)cc3)c3ccc(C(F)(C(F)(F)F)C(F)(F)F)cc3NC[C@@H]12)C1(O)CCS(=O)(=O)CC1	> 10		> 10					> 10	> 10	> 40	0.006
CC(=O)N1CCC(C(=O)N2CC[C@@]3(S(=O)(=O)c4ccc(F)cc4)c4ccc(C(F)(C(F)(F)F)C(F)(F)F)cc4CC[C@@H]23)CC1	> 10	0.35	> 10	0.817		0.85		> 10	> 10	> 40	
O=C(O)[C@H]1CC[C@H](C(=O)N2CC[C@@]3(S(=O)(=O)c4ccc(F)cc4)c4ccc(C(F)(C(F)(F)F)C(F)(F)F)cc4NC[C@@H]23)CC1	> 10	> 2	> 10	> 2		> 2		> 10	> 10	> 40	0.014
O=C(O)[C@H]1CC[C@H](C(=O)N2CC[C@@]3(S(=O)(=O)Cc4ccccc4)c4ccc(C(F)(C(F)(F)F)C(F)(F)F)cc4CC[C@@H]23)CC1	> 10		> 10					> 10	> 10	> 40	
C[C@]1(C(=O)O)CC[C@H](C(=O)N2CC[C@@]3(S(=O)(=O)c4ccc(F)cc4)c4ccc(C(F)(C(F)(F)F)C(F)(F)F)cc4CC[C@@H]23)CC1	> 10	> 2	> 10	1.73		> 2		> 10	> 10	> 40	
O=C(O)[C@H]1CC[C@@H](C(=O)N2CC[C@@]3(S(=O)(=O)c4ccc(F)cc4)c4ccc(C(F)(C(F)(F)F)C(F)(F)F)cc4CC[C@@H]23)CC1	> 10		> 10					> 10	> 10	> 40	
O=C(O)[C@H]1CC[C@H](C(=O)N2CC[C@@]3(S(=O)(=O)c4ccc(Cl)cc4)c4ccc(C(F)(C(F)(F)F)C(F)(F)F)cc4CC[C@@H]23)CC1	> 10	> 2	> 10	> 2		> 2		> 10	> 10	> 40	

Other lines, results leading:

IC50 [1] [µM]	half-life [2] [h]	IC50 [3] [µM]	half-life [4] [h]	concentration at 24 h [5] [µM]	half-life [6] [h]	Cmax [7] [µM]	IC50 [8] [µM]	IC50 [9] [µM]	IC50 [10] [µM]	fraction unbound [11]	Compound
> 10	> 2	> 10	> 2	1	> 2	9.3	> 10	> 10	> 40		O=C(O)C12CCC(C(=O)N3CC[C@@]4(S(=O)(=O)c5ccc(F)cc5)c5ccc(C(F)(C(F)(F)F)C(F)(F)F)cc5CC[C@@H]34)(CC1)CC2
> 10	1.82	> 10	1.78		1.4		> 10	> 10	> 40		C[C@]1(C(=O)N2CC[C@@]3(S(=O)(=O)c4ccc(F)cc4)c4ccc(C(F)(C(F)(F)F)C(F)(F)F)cc4CC[C@@H]23)CC[C@H](C(=O)O)CC1
> 10	> 2	> 10	1.1		> 2		> 10	> 10	> 40		O=C(C1CCS(=O)(=O)CC1)N1CC[C@@]2(S(=O)(=O)c3ccc(F)cc3)c3ccc(C(F)(C(F)(F)F)C(F)(F)F)cc3CC[C@@H]12
> 10	> 2	> 10	> 2		> 2		> 10	> 10	> 40	0.003	O=C(O)[C@H]1CC[C@H](C(=O)N2CC[C@@]3(S(=O)(=O)c4ccc(F)cc4)c4ccc(C(F)(C(F)(F)F)C(F)(F)F)cc4OC[C@@H]23)CC1
> 10	> 2	> 10	> 2		> 2		> 10	> 10	> 40		O=C(O)[C@H]1CC[C@H](C(=O)N2CC[C@@]3(S(=O)(=O)c4cccc(Cl)c4)c4ccc(C(F)(C(F)(F)F)C(F)(F)F)cc4CC[C@@H]23)CC1
> 10	1.37	> 10	1.02		> 2		> 10	> 10	> 40		Cc1ccc(S(=O)(=O)[C@@]23CCN(C(=O)[C@H]4CC[C@H](C(=O)O)CC4)[C@@H]2CCc2cc(C(F)(C(F)(F)F)C(F)(F)F)ccc23)cc1
